In ChEMBL document CHEMBL1201862, “PubChem BioAssay data set” (2004):
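Assay format: 96-well plates, 48-hour exposure. The concentration for 50% growth inhibition is given as GI50.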 Activity calls are given as the source filed them. Cut-off read from the data, not from the text of the source: active = GI50 up to about 1.1 µM and inactive = higher.

Experiments:
Experiment in all cases: NCI-60 cell line screen, 48 h
A498 = tested on: A498
ACHN = tested on: ACHN
DU-145 = tested on: DU-145
Hs-578T = tested on: Hs-578T
U-251 = tested on: U-251
RPMI-8226 = tested on: RPMI-8226
HOP-92 = tested on: HOP-92
786-0 = tested on: 786-0
BT-549 = tested on: BT-549
CCRF-CEM = tested on: CCRF-CEM
HCT-116 = tested on: HCT-116
MCF7 = tested on: MCF7
COLO 205 = tested on: COLO 205
SNB-19 = tested on: SNB-19
HT-29 = tested on: HT-29
OVCAR-5 = tested on: OVCAR-5
SF-268 = tested on: SF-268
TK-10 = tested on: TK-10
SF-295 = tested on: SF-295

Measured: GI50

C[C@]12CC(c3ccccc3O1)C(C(=O)Nc1nc(C34CC5CC(CC(C5)C3)C4)cs1)C(=O)N2 (stereo partly drawn)
inactive: A498 > 100 µM | ACHN > 100 µM | DU-145 > 100 µM | Hs-578T > 100 µM | U-251 > 100 µM | RPMI-8226 > 100 µM | HOP-92 > 100 µM | 786-0 > 100 µM | BT-549 > 100 µM | CCRF-CEM 89.1 µM | HCT-116 98.9 µM | MCF7 > 100 µM | COLO 205 > 100 µM | SNB-19 > 100 µM | HT-29 > 100 µM | OVCAR-5 > 100 µM | SF-268 > 100 µM

O=c1[nH]c2ccccc2c(=O)c2cc3ccccc3cc12
inactive: TK-10 15.7 µM | A498 17.2 µM | ACHN 33.7 µM | DU-145 26.9 µM | Hs-578T 8.81 µM | U-251 6.28 µM | SF-295 18.6 µM | HOP-92 3.9 µM | 786-0 6.58 µM | BT-549 15.7 µM | CCRF-CEM 51.5 µM | HCT-116 5.78 µM | MCF7 > 100 µM | COLO 205 88.7 µM | SNB-19 12.1 µM | HT-29 > 100 µM | OVCAR-5 > 100 µM | SF-268 3.42 µM

CSc1c(C#N)c(S)n(-c2ccc(Cl)cc2)c(=O)c1C#N
inactive: TK-10 > 100 µM | A498 > 100 µM | DU-145 > 100 µM | Hs-578T > 100 µM | U-251 > 100 µM | RPMI-8226 38.7 µM | 786-0 > 100 µM | BT-549 > 100 µM | CCRF-CEM 32.5 µM | HCT-116 45.4 µM | MCF7 > 100 µM | COLO 205 > 100 µM | SNB-19 > 100 µM | HT-29 99.3 µM | OVCAR-5 > 100 µM | SF-268 > 100 µM

O=c1cc(-c2ccccc2)oc2c(-c3cc(Cl)cc4c(=O)cc(-c5ccccc5)oc34)cc(Cl)cc12
inactive: TK-10 45 µM | A498 16.1 µM | ACHN 16.2 µM | DU-145 36.3 µM | Hs-578T 15.3 µM | U-251 19 µM | SF-295 22.4 µM | RPMI-8226 25.2 µM | 786-0 27.4 µM | BT-549 29.6 µM | CCRF-CEM 5.48 µM | MCF7 24.5 µM | COLO 205 31.8 µM | SNB-19 29.4 µM | HT-29 34 µM | OVCAR-5 37.9 µM | SF-268 32.8 µM
